{
  "source": "patent US9241961B2",
  "about": "“Medicinal product for treating gastrointestinal ulcers” (BIOCEDEX, priority 2009, dated 2016)",
  "key": {"[1]": {"test_system": "gastric ibuprofen-induced ulcer", "assay": "model of gastric ibuprofen-induced ulcer in the rat", "assay_type": "in vivo", "settings": "ibuprofen alone 100 mg/kg/d oral for 6 days, male Wistar rat", "description": "The inventors determined the anti-ulcer effect of Saccharomyces boulardii in the model of gastric ibuprofen-induced ulcer in the rat according to the protocol of Abraham et al. (2005) Dig Dis Sci 50:1 632-1 640. Male Wistar rats obtained from Janvier weighing between 200 and 220 grams are used after acclimatization for at least 7 days in the animal house (temp.=22 ±2° C.; humidity: 50±20%; food SAFE “A04”; nyctohemeral cycle: 12 hours of light and 12 hours of darkness). On D1, the rat receives the test product or the solvent by the oral route. Then, 1 hour later, the rat receives ibuprofen at 100 mg/kg by the oral route, or the solvent for the control group. The rats receive these treatments for 6 consecutive days. The animals go without food for 14-16 hours before the last administration of ibuprofen, but have access to drink. They are placed individually in a metal cage, the floor of which is a grating, to prevent coprophagia. On D6 the rat is sacrificed. […] Macroscopic evaluation of the gastric lesions is carried out as follows: • the stomach is spread out on a cork support with pins; • the number of ulcers on each stomach is counted; • the ulcerated area (mm^2) of haemorrhagic lesions is measured with a grid of squares (×10) and a stereo-microscope (Leica Wild M8) by measuring the length (mm) and width (mm) of each ulceration. […]"}, "[2]": {"assay": "development of body weight of the rats during 6-day oral treatment", "assay_type": "in vivo", "settings": "Sb 0.3-1.0-3.0 g/kg/d and/or ibuprofen 100 mg/kg/d, 6 days, rat", "description": "Male Wistar rats obtained from Janvier weighing between 200 and 220 grams are used after acclimatization for at least 7 days in the animal house (temp.=22 ±2° C.; humidity: 50±20%; food SAFE “A04”; nyctohemeral cycle: 12 hours of light and 12 hours of darkness).\nOn D1, the rat receives the test product or the solvent by the oral route. Then, 1 hour later, the rat receives ibuprofen at 100 mg/kg by the oral route, or the solvent for the control group. The rats receive these treatments for 6 consecutive days."}},
  "data": [
    {"compound": "CC(C)Cc1ccc(C(C)C(=O)O)cc1", "note": "(stereo not drawn) [ibuprofen]", "values": [
      {"measurement": "number of ulcers", "setting": "[1]; gastric mucosa, recorded on day 6", "result": "6.60±1.06", "unit": "ulcers"},
      {"measurement": "total area of ulceration", "setting": "[1]; measured on day 6", "result": "9.40±1.72", "unit": "mm^2"},
      {"measurement": "development of body weight relative to the untreated group", "setting": "[2]", "result": "do not alter the development of body weight"}
    ]}
  ]
}
